# Results published in PubChem BioAssay AID200 (DTP/NCI, 2004).
# Values joined by “and” are separate entries in the source; they are usually repeats but may differ in a detail not shown here. Identical values can stand only once. Inconclusive results and toxic doses are left out.
# Tested on: B6C3F1 mice, B16 melanoma ip, median survival T/C
# Experiment: NCI In Vivo Anticancer Drug Screen. Data for tumor model B16 Melanoma (intraperitoneal) in B6C3F1 mice
# Details: endpoint: median survival time, schedule: Q01DX009 (ip), higher = longer survival
# Outline: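 Readout: survival or tumor size in treated mice relative to vehicle controls (T/C). Model uses transplantable tumors grown in mice.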
# [1] = dose: 12.5 mg/kg/injection, vehicle: saline
# [2] = dose: 25.0 mg/kg/injection, vehicle: saline
SMILES,T/C [1],"T/C (dose: 12.5 mg/kg/injection, vehicle: suspension in saline)",T/C [2],"T/C (dose: 25.0 mg/kg/injection, vehicle: suspension in saline)","T/C (dose: 100.0 mg/kg/injection, vehicle: saline)","T/C (dose: 100.0 mg/kg/injection, vehicle: suspension in saline)","T/C (dose: 200.0 mg/kg/injection, vehicle: saline)","T/C (dose: 200.0 mg/kg/injection, vehicle: suspension in saline)","T/C (dose: 100.0 mg/kg/injection, vehicle: saline with Tween-80)","T/C (dose: 200.0 mg/kg/injection, vehicle: saline with Tween-80)"
C1OC1CO[C@@H]1CO[C@H]2[C@@H]1OC[C@H]2OCC1CO1 (some centres not stated),111 % of control,111 % of control,115 % of control,111 % of control,171 % of control and 182 % of control,153 % of control,220 % of control and 235 % of control,205 % of control,–,–
CN(C)CC(O)c1cc2ccccc2c2ccccc12 (configuration not stated),103 % of control,–,103 % of control,–,–,–,–,–,–,–
Nc1cc(Cl)c(N=Nc2ccccc2)c(N)n1,–,–,–,–,–,–,–,–,89 % of control,90 % of control
